Results published in patent US20240174680A1, “CDK2 INHIBITORS AND METHODS OF USING THE SAME” (Cedilla Therapeutics, Inc., priority 2021, published 2024).

Target: CDK2/Cyclin E1 (Homo sapiens, UniProt P24941)
Assay: CDK2/Cyclin E1 Caliper LabChip EZ Reader mobility shift assay
Assay type: biochemical
Set-up: purchased Eurofins 14-475
Settings: read-out: Caliper Assay (CDK2/CCNE1): IC50
In short: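 Mobility-shift kinase assay: compound titrations preincubated 30 min with enzyme and ATP, reaction started with 5-FAM-QSPKKG-CONH2 peptide. Final 2.5 nM CDK2/Cyclin E1, 100 μM ATP, 1.5 μM peptide, HEPES pH 7.5; stopped with EDTA after 100 min. IC50 from four-parameter fit of normalized conversion ratio.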

Structure (SMILES) | IC50 [nM]
CNC(=O)[C@@H](NC(=O)[C@H]1CN(C(=O)c2scnc2C2CCCC2)CC12CN(C(=O)[C@H]1CC1(C)C)C2)[C@@H](C)OCC1CCCCC1 [I-224A] | 1000 to 10000
CNC(=O)[C@@H](NC(=O)[C@@H]1CN(C(=O)c2scnc2C2CCCC2)CC12CN(C(=O)[C@H]1CC1(C)C)C2)[C@@H](C)OCC1CCCCC1 [I-224B] | > 10000
CNC(=O)[C@H](CSCc1ccccc1)NC(=O)[C@@H]1CN(C(=O)c2cnn(Cc3ccccc3)c2)CC12CN(C(=O)[C@H]1CC1(C)C)C2 [I-225] | 100 to 1000
CNC(=O)[C@H](CS(=O)(=O)Cc1ccccc1)NC(=O)[C@@H]1CN(C(=O)c2cnn(Cc3ccccc3)c2)CC12CN(C(=O)[C@H]1CC1(C)C)C2 [I-226] | 1000 to 10000
CNC(=O)[C@@H](NC(=O)[C@@H]1CN(C(=O)c2sc(C(C)C)nc2C)CC12CN(C(=O)[C@H]1CC1(C)C)C2)[C@@H](C)OCC1CCCCC1 [I-227A] | 100 to 1000
CNC(=O)[C@@H](NC(=O)[C@H]1CN(C(=O)c2sc(C(C)C)nc2C)CC12CN(C(=O)[C@H]1CC1(C)C)C2)[C@@H](C)OCC1CCCCC1 [I-227B] | > 10000
C[C@@H](OCC1CCC(F)(F)CC1)[C@H](NC(=O)[C@@H]1CN(C(=O)c2cn[nH]c2)CC12CN(C(=O)[C@H]1CC1(C)C)C2)C(=O)N1CCC(F)(F)CC1 [I-228A] | ≤ 10
C[C@@H](OCC1CCC(F)(F)CC1)[C@H](NC(=O)[C@H]1CN(C(=O)c2cn[nH]c2)CC12CN(C(=O)[C@H]1CC1(C)C)C2)C(=O)N1CCC(F)(F)CC1 [I-228B] | 100 to 1000
CNC(=O)[C@@H](NC(=O)[C@@H]1CN(C(=O)c2cnc(C(C)(C)C)s2)CC12CN(C(=O)[C@H]1CC1(C)C)C2)[C@@H](C)OCC1CCCCC1 [I-229A] | > 10000
CNC(=O)[C@@H](NC(=O)[C@H]1CN(C(=O)c2cnc(C(C)(C)C)s2)CC12CN(C(=O)[C@H]1CC1(C)C)C2)[C@@H](C)OCC1CCCCC1 [I-229B] | > 10000
CC1(C)C[C@@H]1C(=O)N1CC2(CN(C(=O)c3cnn(Cc4ccccc4)c3)C[C@H]2C(=O)NCc2nc3ccccc3o2)C1 [I-230] | 1000 to 10000
CNC(=O)[C@@H](NC(=O)[C@@H]1CN(C(=O)c2scnc2C(C)(C)C)CC12CN(C(=O)[C@H]1CC1(C)C)C2)[C@@H](C)OCC1CCCCC1 [I-231A] | 1000 to 10000
CNC(=O)[C@@H](NC(=O)[C@H]1CN(C(=O)c2scnc2C(C)(C)C)CC12CN(C(=O)[C@H]1CC1(C)C)C2)[C@@H](C)OCC1CCCCC1 [I-231B] | > 10000
CNC(=O)[C@@H](NC(=O)[C@@H]1CN(C(=O)c2sc(Cl)nc2Cl)CC12CN(C(=O)[C@H]1CC1(C)C)C2)[C@@H](C)OCC1CCCCC1 [I-232A] | 10 to 100
CNC(=O)[C@@H](NC(=O)[C@H]1CN(C(=O)c2sc(Cl)nc2Cl)CC12CN(C(=O)[C@H]1CC1(C)C)C2)[C@@H](C)OCC1CCCCC1 [I-232B] | 1000 to 10000
CC(C)O[C@H]1C[C@H](NC(=O)[C@@H]2CN(C(=O)c3cnn(Cc4ccccc4)c3)CC23CN(C(=O)[C@H]2CC2(C)C)C3)C1 [I-233] | > 10000
CC1(C)C[C@@H]1C(=O)N1CC2(CN(C(=O)c3cnn(Cc4ccccc4)c3)C[C@H]2C(=O)N2CC[C@@H](OCC3CCCCC3)C2)C1 [I-235] | 100 to 1000
CC1(C)C[C@@H]1C(=O)N1CC2(CN(C(=O)c3cnn(Cc4ccccc4)c3)C[C@H]2C(=O)N2CCC[C@H](OCC3CCCCC3)C2)C1 [I-236] | 1000 to 10000
CC1(C)C[C@@H]1C(=O)N1CC2(CN(C(=O)c3cnn(Cc4ccccc4)c3)C[C@H]2C(=O)N2CCN(CC3CCCCC3)CC2)C1 [I-237] | 100 to 1000
C[C@@H](OCC1CCCCC1)[C@H](NC(=O)[C@@H]1CN(C(=O)c2cnn(Cc3ccccc3)c2)CC12CN(C(=O)[C@H]1CC1(C)C)C2)C(=O)N1CCC[C@@H]1CN [I-238] | 10 to 100

Structure (SMILES) | IC50 [nM]
C[C@@H](OCC1CCCCC1)[C@H](NC(=O)[C@@H]1CN(C(=O)c2cnn(Cc3ccccc3)c2)CC12CN(C(=O)[C@H]1CC1(C)C)C2)C(=O)N1CC(CN)C1 [I-239] | ≤ 10
C[C@@H](OCC1CCCCC1)[C@H](NC(=O)[C@@H]1CN(C(=O)c2cnn(Cc3ccccc3)c2)CC12CN(C(=O)[C@H]1CC1(C)C)C2)C(=O)N1CC2(CNC2)C1 [I-240] | ≤ 10
Cc1n[nH]c(C(=O)N2C[C@@H](C(=O)N[C@H](C(=O)N3CCCCC3)[C@@H](C)OCC3CCCCC3)C3(C2)CN(C(=O)[C@H]2CC2(C)C)C3)n1 [I-241] | 1000 to 10000
C[C@@H](OCC1CCCCC1)[C@H](NC(=O)C1CN(C(=O)C2CCC(=O)N(C)C2)CC12CN(C(=O)[C@H]1CC1(C)C)C2)C(=O)N1CCCCC1 (stereo partly shown) [I-242] | 1000 to 10000
CC1(C)C[C@@H]1C(=O)N1CC2(CN(C(=O)c3cnn(Cc4ccccc4)c3)C[C@H]2C(=O)N[C@H]2CCN(C3CC3)C2=O)C1 [I-243] | > 10000
CNC(=O)[C@@H](NC(=O)[C@@H]1CN(C(=O)c2cnn(Cc3ccccc3)c2)CC12CN(C(=O)[C@H]1CC1(C)C)C2)[C@@H](C)OCc1ccncc1 [I-244] | 1000 to 10000
CC1(C)C[C@@H]1C(=O)N1CC2(CN(C(=O)c3cnn(Cc4ccccc4)c3)CC2C(=O)NC2CNCCOC2)C1 (stereo partly shown) [I-245] | 1000 to 10000
CNC(=O)[C@@H](NC(=O)[C@@H]1CN(C(=O)c2nncs2)CC12CN(C(=O)[C@H]1CC1(C)C)C2)[C@@H](C)OCC1CCCCC1 [I-246] | 100 to 1000
CNC(=O)[C@@H](NC(=O)[C@@H]1CN(C(=O)c2cnn(Cc3ccccc3)c2)CC12CN(C(=O)[C@H]1CC1(C)C)C2)[C@@H](C)OCc1cccnc1 [I-247] | 100 to 1000
CO[C@@H]1CC[C@H](NC(=O)[C@@H]2CN(C(=O)c3cnn(Cc4ccccc4)c3)CC23CN(C(=O)[C@H]2CC2(C)C)C3)C1 [I-248] | > 10000
CNC(=O)[C@@H](NC(=O)[C@@H]1CN(C(=O)c2cnn(Cc3ccccc3)c2)CC12CN(C(=O)[C@H]1CC1(C)C)C2)[C@@H](C)OCC1C[C@@H](C)C[C@@H](C)C1 (stereo partly shown) [I-249] | 10 to 100
COCC1(NC(=O)[C@H]2CN(C(=O)c3cnn(Cc4ccccc4)c3)CC23CN(C(=O)[C@H]2CC2(C)C)C3)CC1 [I-250] | > 10000
CNC(=O)[C@@H](NC(=O)[C@@H]1CN(C(=O)c2cnn(Cc3ccccc3)c2)CC12CN(C(=O)[C@H]1CC1(C)C)C2)[C@@H](C)OCc1ccccc1O [I-251] | 100 to 1000
CC1(C)C[C@@H]1C(=O)N1CC2(CN(C(=O)c3cnn(Cc4ccccc4)c3)C[C@H]2C(=O)N2CCC[C@@H](OCC3CCCCC3)C2)C1 [I-254] | > 10000
CC1(C)C[C@@H]1C(=O)N1CC2(CN(C(=O)c3cnn(Cc4ccccc4)c3)C[C@H]2C(=O)N2CCO[C@H](Cc3ccccc3)C2)C1 [I-255] | > 10000
CNC(=O)[C@@H](NC(=O)C1CN(C(=O)c2cnn(Cc3ccccc3)c2)CC12CN(C(=O)[C@H]1CC1(C)C)C2)[C@@H](C)OCc1ccccn1 (stereo partly shown) [I-257] | 1000 to 10000
CN1CC[C@@H](NC(=O)[C@@H]2CN(C(=O)c3cnn(Cc4ccccc4)c3)CC23CN(C(=O)[C@H]2CC2(C)C)C3)C1=O [I-258] | > 10000
CC1(C)C[C@@H]1C(=O)N1CC2(CN(C(=O)c3cnn(Cc4ccccc4)c3)C[C@H]2C(=O)N[C@@H]2CCN(C3CC3)C2=O)C1 [I-259] | > 10000
CNC(=O)[C@H](CO)NC(=O)C1CN(C(=O)c2cnn(Cc3ccccc3)c2)CC12CN(C(=O)[C@H]1CC1(C)C)C2 (stereo partly shown) [I-260] | > 10000
CNC(=O)[C@@H](CO)NC(=O)C1CN(C(=O)c2cnn(Cc3ccccc3)c2)CC12CN(C(=O)[C@H]1CC1(C)C)C2 (stereo partly shown) [I-261] | > 10000
